Like-named read-outs stand apart in the source and are kept apart here.
Tests used:
in vitro [1] = settings: dog
[2] = system: influenza virus A/H3N2, strain Hong Kong 68; assay: Antiviral activity against influenza virus A/H3N2, strain Hong Kong 68 (crystal violet uptake assay in MDCK cells); format: cell-based; settings: for Active: experimental class, active if IC50 < 30 μM
Protocol: The synthesized compounds were tested for antiviral activity against the influenza virus A/H3N2, strain Hong Kong 68.
In order to identify new potential antiviral drugs, small amounts of extracts or compounds have to be examined for cytotoxicity and antiviral activity in primary screening using a rapid, easy, inexpensive and highly standardized test system. The cytotoxic and the antiviral effects were quantified using a crystal violet uptake assay allowing automated handling of large numbers of candidate agents. […] Madin-Darby Kanine Kidney Cells (MDCK) cells were seeded at 2 × 10^4 cells per well in 96-well flat-bottomed microtiter plates (Falcon 3075). The cytotoxicity of the test compounds was determined on 2-day-old confluent MDCK cell monolayers grown in the internal 60 wells (5% CO2, 37 °C). After removal of the growth medium, two-fold dilutions of the compounds in 100 µL test medium were added and incubated at 37 °C in a 5% CO2 atmosphere for 72 h. Cells in six wells without compound treatment served as basic controls. The Dynex Immuno Assay System (DIAS, Guernsey, UK) developed for automated ELISA techniques was applied to wash gently, stain, measure and analyze the viability of the cell monolayers in cytotoxic, as well as antiviral assays. The staining procedure undertaken with crystal violet was based on the principles described by Nain et al. for the determination of the cytotoxic activity of TNF-α [20]. At first, the supernatant was aspirated and the cell monolayers were washed three times with […] physiological sodium chloride solution to remove dead cells. Secondly, the cells were fixed and stained in one step with 50 µL of 0.03% crystal violet (w/v) in 20% methanol for 10 min. […] Then the optical density of individual wells was quantified spectrophotometrically at 540/630 nm and analyzed with the DIAS. Cell viability was evaluated as the percentage of the mean value of optical density, resulting from the six cell controls, which was set 100%. The 50% cytotoxic concentrations (CC50) were calculated from the mean dose–response curves of three assays each with two parallels.
To exclude non-specific antiviral activities of test compounds, their cytotoxic effects have to be determined not only on confluent cell monolayers but also on proliferating cell cultures in the primary antiviral screening. The cytotoxicity and the growth inhibition of compounds were quantified using an automated crystal violet staining procedure and the electronic cell analyzer system CASY 1, respectively, on day 3 after compound application. The 50% cytotoxic and growth inhibition concentrations were calculated from the mean dose–response curve (3.9 through 1000 µg mL^−1; dilution factor 2) of three separate experiments each with two parallels in the indicated cell lines.

MDCK cells = settings: for HNTC (μM) MDCK Cells: high-nontoxic concentration; for CC50: read-out: CC50 (μM) MDCK Cells, 50% cytotoxic concentration, confluent MDCK monolayers, 72 h
in vitro [3] = format: in vitro ADME; settings: human, plasma
Protocol: The separation of glycyl-rimantadine (4b) and Ala-rimantadine (4a) (internal standard, IS) was performed on an ultra-high-performance liquid chromatography (UHPLC) system (Bruker Daltonics, Germany), utilizing an RP Kinetex C18 column 100 mm × 2.1 mm, 2.6 μm, with a proguard column 2.1 mm (Phenomenex, USA). The mobile phase was composed of formic acid 0.1% in water (A) and acetonitrile (B). Gradient elution was chosen for the analysis, at a constant flow rate of 0.25 mL min^−1 and the following gradient profile: initial phase (B) concentration of 5% until 0.3 min, then increased to 80% within 1.2 min, kept constant for 1 min at 80% and then reduced to 5% at 2.6 min, until the end of the run at 4 min. The temperature in the autosampler and the column oven was maintained at 15 °C and 40 °C, respectively. The sample injection volume was set to 5 μL.
The EVOQ Elite ER (Bruker Daltonics, Germany) triple quadrupole mass spectrometer was operated in positive ionization electrospray mode (ESI) in multiple reaction monitoring (MRM) for the detection of glycyl-rimantadine (4b) and IS. The optimal MRM transitions for monitoring the analytes were determined and set as follows: m/z 237.1 → 163.2, 237.1 → 75.5 and 237.1 → 81.4 for glycyl-rimantadine and 251.1 → 163.2, 251.1 → 89.4 and 251.1 → 180.2 for the IS. The optimum ESI parameters were determined and set as follows: spray voltage at 4500 V; heated probe gas flow at 50 units; heated probe temperature at 150 °C; cone gas flow at 20 units; cone temperature at 300 °C and nebulizer gas flow at 50 units. The control of the LC and the MS, as well as the data acquisition, was performed using the MSWS software, version 8.2.1 (Bruker Datonics, Germany). […]
The in vitro plasma stability of glycyl-rimantadine (4b) was conducted by LC–MS/MS. […] The glycyl-rimantadine (4b) concentration was calculated via the standard calibration curve that was designed by plotting the area of the conjugate versus the IS area against the nominal concentration of the calibration standards. […]

[4] = parameters: method as in doi:10.1177/095632029200300305, PMID 9706043, PMID 19116869; settings: orally introduced; cited from earlier work
[5] = Influenza A virus, H3N2, MDCK, read-out: IC50 (μM) Against A/Hong Kong/68
[6] = MDCK, Table 4, against A/Hong Kong/68, QSAR numbering, read-out: IC50
[7] = influenza A/H3N2 Hong Kong/68, read-out: IC50 (μM) Against A/Hong Kong/68
[8] = Table 4, against A/Hong Kong/68, QSAR numbering, read-out: IC50

| Structure (SMILES) | CC50 (in vitro [1]) [µM] | IC50 [2, 5] [µM] | Active [2] | HNTC (μM) MDCK Cells (MDCK cells) [µM] | further results |
| --- | --- | --- | --- | --- | --- |
| NC12CC3CC(CC(C3)C1)C2 [Amantadine, reference compound] | > 100 | 0.39 | Yes (Active compound only if IC50 < 30 μM) | – | IC50 [2, 6]: 0.39 µM |
| CC(N)C(=O)NC(C)C12CC3CC(CC(C3)C1)C2 (centres unmarked) [Compound 4a, Ala-Rimantadine] | > 100 | 1.53 | – | 14.65 | – |
| CC(NC(=O)CN)C12CC3CC(CC(C3)C1)C2 (centres unmarked) [Compound 4b, glycyl-rimantadine] | > 100 | 0.11 | – | 13.89 | remaining at 6 h, 1.58 µg/mL (in vitro [3]): 97.5%; remaining at 12 h, 1.58 µg/mL (in vitro [3]): ~91%; remaining at 24 h, 1.58 µg/mL (in vitro [3]): 83.7% |
| CCC(C)C(N)C(=O)NC(C)C12CC3CC(CC(C3)C1)C2 (centres unmarked) [Compound 4c, Ile-Rim] | 58.4 | – | – | 5.33 | – |
| CC(C)CC(N)C(=O)NC(C)C12CC3CC(CC(C3)C1)C2 (centres unmarked) [Compound 4d, Leu-Rim] | > 100 | 0.75 | – | 11.66 | – |
| CC(NC(=O)C(N)Cc1ccccc1)C12CC3CC(CC(C3)C1)C2 (centres unmarked) [Compound 4e, Phe-Rim] | 21.9 | – | – | 4.75 | – |
| CC(NC(=O)[C@H](N)Cc1ccc(F)cc1)C12CC3CC(CC(C3)C1)C2 (stereo partly drawn) [Compound 4f, (4-F)-D-Phe-Rim] | 19.9 | – | – | 6.23 | – |
| CC(NC(=O)C(N)Cc1ccc(F)cc1)C12CC3CC(CC(C3)C1)C2 (centres unmarked) [Compound 4g, (4-F)-Phe-Rim] | 15.5 | – | – | 4.37 | – |
| CC(C)C(N)C(=O)NC(C)C12CC3CC(CC(C3)C1)C2 (centres unmarked) [Compound 4h, Val-Rim] | 70.3 | – | – | 10.2 | – |
| CC(NC(=O)CCN)C12CC3CC(CC(C3)C1)C2 (stereo not drawn) [Compound 4i, β-Ala-Rimantadine] | > 100 | 15.7 | – | 20.78 | – |
| CC(NC(=O)C(N)Cc1ccc(O)cc1)C12CC3CC(CC(C3)C1)C2 (centres unmarked) [Compound 4j, Tyr-Rimantadine] | > 100 | 0.52 | – | 9.97 | – |
| CC(N)C(=O)NC12CC3CC(CC(C3)C1)C2 (centres unmarked) [Compound 5a, Ala-Amantadine] | > 100 | 1.41 | Yes (Active compound only if IC50 < 30 μM) | >100 | IC50 [2, 6]: 1.41 µM |
| NC(Cc1ccccc1)C(=O)NC12CC3CC(CC(C3)C1)C2 (centres unmarked) [Compound 5e, phenylalanyl-amantadine] | 89.4 | 0.75 | Yes (Active compound only if IC50 < 30 μM) | 15.1 | IC50 [2, 6]: 0.75 µM |
| NC(Cc1ccc(F)cc1)C(=O)NC12CC3CC(CC(C3)C1)C2 (centres unmarked) [Compound 5g, (4-F)-phenylalanyl-amantadine] | 83.6 | 0.81 | Yes (Active compound only if IC50 < 30 μM) | 15.35 | IC50 [2, 6]: 0.81 µM |
| CC(C)C(N)C(=O)NC12CC3CC(CC(C3)C1)C2 (centres unmarked) [Compound 5h, Val-Amantadine] | > 100 | 1.32 | Yes (Active compound only if IC50 < 30 μM) | >100 | IC50 [2, 6]: 1.32 µM |
| CC(NC(=O)[C@H](C)NC(=N)N)C12CC3CC(CC(C3)C1)C2 (stereo partly drawn) [Compound 6a, Gua-Ala-Rim] | – | – | – | >100 | CC50 (MDCK cells): > 100 µM; IC50 [2, 7]: 41.9 µM |
| CC(NC(=O)CCNC(=N)N)C12CC3CC(CC(C3)C1)C2 (stereo not drawn) [Compound 6i, Gua-β-Ala-Rim] | – | – | – | >100 | CC50 (MDCK cells): > 100 µM |
| CC(NC(=O)[C@H](Cc1ccc(O)cc1)NC(=N)N)C12CC3CC(CC(C3)C1)C2 (stereo partly drawn) [Compound 6j, Gua-Tyr-Rim] | – | – | – | 36.69 | CC50 (MDCK cells): > 100 µM; IC50 [2, 7]: 8.19 µM |
| C[C@H](NC(=N)N)C(=O)NC12CC3CC(CC(C3)C1)C2 [Compound 7a, Gua-Ala-Am] | – | – | Yes (Active compound only if IC50 < 30 μM) | >100 | CC50 (MDCK cells): > 100 µM; IC50 [2, 8]: 18.4 µM; IC50 [2, 7]: 18.4 µM |
| CC(C)[C@H](NC(=N)N)C(=O)NC12CC3CC(CC(C3)C1)C2 [Compound 7h, Gua-Val-Am] | – | – | Yes (Active compound only if IC50 < 30 μM) | >100 | CC50 (MDCK cells): > 100 µM; IC50 [2, 8]: 17.1 µM; IC50 [2, 7]: 17.1 µM |
| CCOC(=O)C1=C[C@@H](OC(CC)CC)[C@H](NC(C)=O)[C@@H](N)C1 [Oseltamivir, reference compound] | > 100 | 0.002 | – | >100 | – |
| CC(C)[C@H](N)C(=O)OCCOCn1cnc2c(=O)[nH]c(N)nc21 [Valacyclovir] | – | – | – | – | bioavailability, times higher than acyclovir [4]: 3–4 times |
